Source: US10098350B2, “Fungicidal amides” (E. I. DU PONT DE NEMOURS AND COMPANY, priority 2013, dated 2018)

Tests used:
Assay type in all cases: in vivo
[1] = tested on: Stagonospora nodorum (also known as Septoria nodorum); experiment: Test B: wheat seedlings sprayed with test suspension, inoculated with Stagonospora nodorum (wheat glume blotch), visual disease rating
Text: (§1) General protocol for preparing test suspensions for Tests A-E: the test compounds were first dissolved in acetone in an amount equal to 3% of the final volume and then suspended at the desired concentration (in ppm) in acetone and purified water (50/50 mix by volume) containing 250 ppm of the surfactant Trem® 014 (polyhydric alcohol esters). The resulting test suspensions were then used in Tests A-E. Samples were applied to plants at either a 10 ppm (**), 40 ppm, 50 ppm (*) or 200 ppm (#) test solution to the point of run-off on the test plants with the equivalent of a rate of 40 g ai/ha, 160 g ai/ha, 200 g ai/ha, or 800 g ai/ha, respectively.
The test suspension was sprayed to the point of run-off on wheat seedlings. The following day the seedlings were inoculated with a spore suspension of Stagonospora nodorum (also known as Septoria nodorum; the causal agent of wheat glume blotch) and incubated in a saturated atmosphere at 20° C. for 48 h, and then moved to a growth chamber at 20° C. for 6 days, after which time visual disease ratings were made.
(§2) Results for Tests A-E are given in Table A. In the Table, a rating of 100 indicates 100% disease control and a rating of 0 indicates no disease control (relative to the controls). A dash (-) indicates no test results.

[2] = tested on: Septoria tritici; experiment: Test C: wheat seedlings sprayed with test suspension, inoculated with Septoria tritici (wheat leaf blotch), visual disease rating
Text: as §1
(§3) The test suspension was sprayed to the point of run-off on wheat seedlings. The following day the seedlings were inoculated with a spore suspension of Septoria tritici (the causal agent of wheat leaf blotch) and incubated in a saturated atmosphere at 24° C. for 48 h, and then moved to a growth chamber at 20° C. for 21 days, after which time visual disease ratings were made.
as §2

[3] = tested on: Erysiphe graminis f. sp. tritici; experiment: Test E: wheat seedlings sprayed with test suspension, inoculated with Erysiphe graminis f. sp. tritici (wheat powdery mildew), visual disease rating
Text: as §1
The test suspension was sprayed to the point of run-off on wheat seedlings. The following day the seedlings were inoculated with a spore dust of Erysiphe graminis f. sp. tritici, (the causal agent of wheat powdery mildew) and incubated in a growth chamber at 20° C. for 7 or 8 days, after which time visual disease ratings were made.
as §2

[4] = tested on: Puccinia recondite f. sp. tritici; experiment: Test D: wheat seedlings sprayed with test suspension, inoculated with Puccinia recondite f. sp. tritici (wheat leaf rust), visual disease rating
Text: as §1
as §3, with “Puccinia recondite f. sp. tritici;” for “Septoria tritici”, “rust)” for “blotch)”, “20°” for “24°”, “24” for “48”, “6” for “21”
as §2

[5] = Cmpd. No. unmarked, 100 = 100% disease control, 0 = no control relative to controls
[6] = Cmpd. No. marked '**' (other test rate; meaning of mark not shown)
[7] = Cmpd. No. marked '*' (other test rate; meaning of mark not shown)

| SMILES | Test B rating (% disease control) [1, 5] [%] | Test C rating (% disease control) [2, 5] [%] | Test E rating (% disease control) [3, 5] [%] | Test D rating (% disease control) [4, 5] [%] | further results |
| --- | --- | --- | --- | --- | --- |
| Cn1nc(C(F)F)c(C(=O)N(Cc2ccc(-n3cncn3)cc2Cl)C2CC2)c1F [compound 145] | 95 | 95 | 0 | 0 | – |
| CC(c1cc(-n2ccc(C(F)(F)F)n2)ccc1Br)N(C(=O)c1cn(C)nc1C(F)F)C1CC1 (stereo not drawn) [compound 128] | 100 | 92 | 93 | 0 | – |
| Cn1nc(C(F)F)c(C(=O)N(Cc2ccc(-n3ccc(C(F)(F)F)n3)cc2Cl)C2COC2)c1F [Compound 164] | – | – | – | – | Test B rating (% disease control) [1, 6]: 0%; Test C rating (% disease control) [2, 6]: 46%; Test E rating (% disease control) [3, 6]: 0%; Test D rating (% disease control) [4, 6]: 0% |
| Cn1nc(C(F)F)c(C(=O)N(Cc2ccc(-n3ccc(C(F)(F)F)n3)c(Cl)c2)C2CC2)c1F [compound 99] | – | – | – | – | Test B rating (% disease control) [1, 6]: 59%; Test C rating (% disease control) [2, 6]: 96%; Test E rating (% disease control) [3, 6]: 89%; Test D rating (% disease control) [4, 6]: 97% |
| Cn1nc(C(F)F)c(C(=O)N(Cc2ccc(-n3cccn3)cc2Cl)C2CC2)c1F [compound 46] | 100 | 99 | 98 | 94 | – |
| CC(c1cc(-n2ccc(C(F)(F)F)n2)ccc1Cl)N(C(=O)c1cn(C)nc1C(F)F)C1CC1 (stereo not drawn) [compound 119] | 99 | 92 | 92 | 93 | – |
| Cn1nc(C(F)F)c(C(=O)N(Cc2ccc(-n3ccc(C(F)(F)F)n3)cc2OCC#N)C2CC2)c1F [compound 61] | 0 | 90 | 21 | 9 | – |
| Cn1cc(C(=O)N(Cc2c(Cl)cc(-n3ccc(Br)n3)cc2Cl)C2CC2)c(C(F)F)n1 [compound 40] | 99 | 99 | 89 | 99 | – |
| Cc1ncn(-c2ccc(CN(C(=O)c3c(C(F)F)nn(C)c3F)C3CC3)c(Cl)c2)n1 [compound 65] | 87 | 98 | 0 | 0 | – |
| Cc1cc(-n2ccc(C(F)(F)F)n2)ccc1CN(C(=O)c1c(C(F)F)nn(C)c1F)C1CC1 [compound 105] | 100 | 98 | 98 | 99 | – |
| Cn1nc(C(F)F)c(C(=O)N(Cc2ccc(-n3cnc(C(F)(F)F)n3)cc2Cl)C2CC2)c1F [compound 67] | 0 | 99 | 0 | 0 | – |
| Cn1nc(C(F)F)c(C(=O)N(Cc2c(Cl)cc(-n3ccc(C(F)(F)F)n3)cc2Cl)C2CC2)c1F [compound 127] | 100 | 99 | 98 | 100 | – |
| CC(C)c1cc(-n2ccc(C(F)(F)F)n2)ccc1CN(C(=O)c1c(C(F)F)nn(C)c1F)C1CC1 [compound 121] | 100 | 95 | 99 | 100 | – |
| Cc1cc(-n2ccc(C(F)(F)F)n2)cnc1CN(C(=O)c1cn(C)nc1C(F)F)C1CC1 [compound 124] | 0 | 94 | 73 | 0 | – |
| Cn1nc(C(F)F)c(C(=O)N(Cc2ccc(-n3ccc(C(F)(F)F)n3)cc2Cl)C2CCC2)c1F [Compound 162] | – | – | – | – | Test B rating (% disease control) [1, 6]: 0%; Test C rating (% disease control) [2, 6]: 64%; Test E rating (% disease control) [3, 6]: 0%; Test D rating (% disease control) [4, 6]: 0% |
| COc1ccc(C(C)N(C(=O)c2cn(C)nc2C(F)F)C2CC2)cc1-n1ccc(C(F)(F)F)n1 (stereo not drawn) [compound 44] | 78 | 87 | 0 | 0 | – |
| CC(c1cc(-n2ccc(C(F)(F)F)n2)ccc1[N+](=O)[O-])N(C(=O)c1cn(C)nc1C(F)F)C1CC1 (stereo not drawn) [compound 129] | 0 | 10 | 0 | 0 | – |
| CC(c1cc(-n2ccc(C(F)(F)F)n2)ccc1[N+](=O)[O-])N(C(=O)c1c(C(F)F)nn(C)c1F)C1CC1 (stereo not drawn) [compound 134] | – | – | – | – | Test B rating (% disease control) [1, 7]: 94%; Test C rating (% disease control) [2, 7]: 43%; Test E rating (% disease control) [3, 7]: 0%; Test D rating (% disease control) [4, 7]: 68% |
| Cn1cc(C(=O)N(Cc2ccc(-n3cccn3)cc2Cl)C2CC2)c(C(F)F)n1 [compound 48] | 100 | 98 | 73 | 0 | – |
| Cn1nc(C(F)F)c(C(=O)N(Cc2ccc(-n3cnc(Cl)n3)cc2Cl)C2CC2)c1F [compound 146] | 0 | 94 | 0 | 0 | – |
| Cc1ccc(-n2ccc(C(F)(F)F)n2)cc1C(C)N(C(=O)c1cn(C)nc1C(F)F)C1CC1 (stereo not drawn) [compound 45] | 100 | 96 | 90 | 9 | – |
| CC(c1ccc(Cl)c(-n2ccc(C(F)(F)F)n2)c1)N(C(=O)c1cn(C)nc1C(F)F)C1CC1 (stereo not drawn) [compound 126] | 92 | 92 | 48 | 68 | – |
| Cc1cnn(-c2ccc(CN(C(=O)c3c(C(F)F)nn(C)c3F)C3CC3)c(Cl)c2)c1 [compound 144] | 100 | 99 | 99 | 97 | – |
| CC(c1cc(-n2ccc(C(F)(F)F)n2)ccc1OC(F)(F)F)N(C(=O)c1c(C(F)F)nn(C)c1F)C1CC1 (stereo not drawn) [compound 133] | – | – | – | – | Test B rating (% disease control) [1, 7]: 100%; Test C rating (% disease control) [2, 7]: 92%; Test E rating (% disease control) [3, 7]: 94%; Test D rating (% disease control) [4, 7]: 68% |
| Cn1nc(C(F)F)c(C(=O)N(Cc2cc(-n3ccc(C(F)(F)F)n3)ccc2Cl)C2CC2)c1F [compound 86] | – | – | – | – | Test B rating (% disease control) [1, 7]: 100%; Test C rating (% disease control) [2, 7]: 99%; Test E rating (% disease control) [3, 7]: 95%; Test D rating (% disease control) [4, 7]: 68% |
| Cn1nc(C(F)F)c(C(=O)N(Cc2ccc(-n3ccnn3)cc2Cl)C2CC2)c1F [compound 66] | 97 | 94 | 0 | 28 | – |
| CC(c1cc(-n2ccc(C(F)(F)F)n2)ccc1OC(F)(F)F)N(C(=O)c1cn(C)nc1C(F)F)C1CC1 (stereo not drawn) [compound 130] | 93 | 28 | 72 | 68 | – |
